From paper PMC9508239 (Nature Communications, 2022)
Values joined by “and” are separate entries in the source; they are usually repeats but may differ in a detail not shown here. Identical values can stand only once.

Legend:
IR = test: Insulin signaling in vivo, white adipose tissue (WAT); settings: mouse epididymal WAT, vs vehicle
Description: (§1) The cells were incubated with the lysis buffer B [50 mM Hepes pH 7.4, 150 mM NaCl, 10% Glycerol, 1% Triton X-100, 1 mM EDTA, 100 mM sodium fluoride, 2 mM sodium orthovanadate, 20 mM sodium pyrophosphate, 0.5 mM dithiothreitol (DTT), 2 mM phenylmethylsulfonyl fluoride (PMSF)] supplemented with cOmplete Protease Inhibitor Cocktail (Roche), PhosSTOP (Sigma), and 25 U/ml turbo nuclease (Accelagen) on ice for 1 h. After centrifuging at 20,817×g at 4 °C for 10 min, the concentrations of cell lysate were measured using Micro BCA Protein Assay Kit (Thermo Scientific). About 50–60 μg total proteins were analyzed by SDS-PAGE and quantitative Western blotting. […] For quantitative western blots, anti-rabbit immunoglobulin G (IgG) (H + L) (WB, 1:5000; Dylight 800 conjugates, Cat. #5151) and anti-mouse IgG (H + L) (WB, 1:5000; Dylight 680 conjugates, Cat. #5470) (Cell Signaling) were used as secondary antibodies. […]
Two to three months old male mice were fasted overnight. […] After centrifuging at 20,817×g at 4 °C for 30 min, the concentrations of cell lysate were measured using Micro BCA Protein Assay Kit (Thermo Scientific). The lysates were then analyzed by quantitative western blotting.

IR F701A/F705A = test: Auto-phosphorylation of IR in 293FT cells expressing IR F701A/F705A; assay type: cell-based, human
Description: (§2) For the activation assay, the short isoform of human IR in pCS2-MYC was used as described previously[20],[49]. Plasmid transfections into 293FT cells were performed with Lipofectamin^TM 2000 (Invitrogen).
as §1

SREBP1 = test: Nuclear translocation of SREBP1 in primary mouse hepatocytes; assay type: cell-based; settings: 100 nM, 30 min
Description: Primary hepatocytes were isolated from 2-month-old male mice with a standard two-step collagenase perfusion procedure as described earlier with some modifications[24],[48],[49]. […] After 1–2 s upon the appearance of white spots in the liver, we cut the portal vein with scissors to wash out blood, and then the liver was perfused with 30 ml of Liver Digest Medium (Thermo Scientific, Cat. #17703034). The dissected liver was gently washed with low-glucose DMEM and transferred to a sterile culture dish containing 15 ml Liver Digest Medium. The isolated liver cells were filtered through the 70 μm cell strainer into a 50 ml tube. After centrifuging at 50×g for 5 min at 4 °C, cells were washed with cold low-glucose DMEM three times. […] After 2 h, the medium was changed to serum-free low-glucose DMEM.
Primary hepatocytes were described in the primary hepatocyte isolation section. […] Cells were fixed with 4% paraformaldehyde for 10 min. The fixed cells were incubated with PBS for 30 min and 3% BSA in PBS with 0.1% Triton X-100 (0.1% PBST) for 1 h, and then treated with anti-SREBP1 antibodies (20B12, Millipore, Cat. #MABS1987, 1:200) in 3% BSA in 0.1% PBST at 4 °C overnight. After being washed, cells were incubated with secondary antibodies (Alexa Fluor 488 goat anti-rabbit, Invitrogen, Cat. #A11008, 1:200) for 1 h. […]

[1] = Body weight after chronic treatment, before OGTT; assay type: in vivo, mouse
Description: For the oral glucose tolerance test, mice were fasted for 6 h and their blood glucose levels (T = 0) were measured with tail bleeding using a glucometer (AlphaTRAK). After then, glucose (2 g/kg body weight) was administered by oral gavage. Blood glucose levels were measured at the indicated time points after glucose administration. For Fig. S10f, 2 months old male mice were fasted for 14 h. […] One hour later, livers were collected.

IR F96A = test: Auto-phosphorylation of IR in 293FT cells expressing IR F96A; assay type: cell-based, human; settings: 10 nM, 10 min
Description: as §2, §1

IR N15K = test: Auto-phosphorylation of IR in 293FT cells expressing IR N15K; assay type: cell-based, human
Description: as §2, §1

IR R14W = test: Auto-phosphorylation of IR in 293FT cells expressing IR R14W; assay type: cell-based, human
Description: as §2, §1

## insulin: native IR ligand used as comparator; Humulin in the in vivo tests
IR
  pAKT, WAT: significantly increased pAKT levels
  pERK, WAT: neither insulin nor S597 had a statistically significant effect on pERK levels
IR F701A/F705A
  IR activation: reduced insulin-dependent IR activation
SREBP1
  nuclear translocation of SREBP1: stimulated to the same level by insulin and S597
[1]; 50U/kg body weight, i.p., once daily for three days, male C57BL/6J, individual mice, N = 5, listed as Ins, in g (unit assumed)
  Body weight before OGTT: 19.9 and 21.6
[1]; 50U/kg once daily for three days, two-tailed Student's t-test
  Body weight, significance: No significant
IR F96A
  IR activation: defective insulin-dependent activation
IR N15K
  IR activation: reduced insulin-dependent IR activation
IR R14W
  IR activation: reduced insulin-dependent IR activation
